Calls of active or inactive are those of the source. The rule behind the calls is not given here.
Target: Ribonuclease HI (Escherichia coli (strain K12)) (UniProt P0A7Y4)
Assay: E. coli RNase HI inhibitors, dose response, biochemical, FRET RNA/DNA duplex cleavage (AID 365)
Conditions: E. coli RNase H, FRET RNA/DNA cleavage fluorescence

Sequence of Ribonuclease HI (Escherichia coli (strain K12)) (P0A7Y4 whole entry, looked up): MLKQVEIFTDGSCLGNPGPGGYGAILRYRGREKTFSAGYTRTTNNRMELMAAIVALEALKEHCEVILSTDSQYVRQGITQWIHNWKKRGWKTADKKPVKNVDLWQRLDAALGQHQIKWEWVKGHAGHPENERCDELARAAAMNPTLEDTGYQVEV

CC(C)c1cccc(O)c(=O)c1
IC50: > 100 µM (inactive)

Cc1c(O)c(Br)c(C)c(O)c1Br (tested in a mixture with another compound)
IC50: > 100 µM (inactive)

O=C1CC(=O)c2ccc3c4c(ccc1c24)C(=O)CC3=O
IC50: 5.2 µM

Oc1c(Br)cc(/C=N/Nc2nnc3c(n2)[nH]c2ccccc23)c(Br)c1O
IC50: 4.3 µM

Oc1ccc(/C=N/Nc2nncc(-c3ccccc3)n2)c(O)c1O
IC50: 7 µM

O=C1NC(=S)N(c2ccc(Cl)cc2)C(=O)/C1=C\C=C\c1ccccc1[N+](=O)[O-]
IC50: 8.8 µM

CC(C)c1ccc(O)c(O)c(=O)c1
IC50: inactive

CC1Oc2cc3c(-c4c(O)cc(O)c5c(O)c6c(cc45)OC(C)C(C)C6=O)c(O)cc(O)c3c(O)c2C(=O)C1C (configuration not stated)
IC50: inactive

FC(F)(F)c1nc2ccc(SSc3ccc4nc(C(F)(F)F)[nH]c4c3)cc2[nH]1
IC50: 8 µM

Cc1cc(Br)ccc1N1C(=O)/C(=C/c2ccco2)C(=O)NC1=S
IC50: 0.2 µM

O=c1oc2ccccc2c(O)c1/C=C1\C=Nc2ccccc21
IC50: inactive

O=C(Nc1ccc(N2CCN(C(=O)c3ccccc3)CC2)cc1)c1ccc(-c2ccccc2)cc1
IC50: 3.8 µM

COC([CH2][Hg][n]1cnc2c1c(=O)n(C)c(=O)n2C)CN1C(=O)c2ccccc2S1(=O)=O (configuration not stated)
IC50: inactive

O=C1NC(=S)N(c2ccc(Cl)cc2)C(=O)/C1=C/c1ccc(Br)o1
IC50: 1.7 µM

Cc1nn(CC(=O)Nc2sc(C)c(C)c2C(N)=O)c(C)c1[N+](=O)[O-]
IC50: 8.2 µM

CCOc1cccc(N2C(=O)/C(=C/c3cn(CC(=O)OC)c4ccccc34)C(=O)NC2=S)c1
IC50: 6.2 µM

O=C1/C(=C\c2ccc(O)c(O)c2)SC(=S)N1c1cccc(Cl)c1
IC50: 2.9 µM

Cc1ccc(-n2c(/C=C/c3ccc(O)c(O)c3)nc3ccccc3c2=O)cc1
IC50: 5 µM

NC(=O)c1c(N)sc2c1CCCCC2
IC50: > 100 µM (inactive)

CCOc1ccc(C(=O)Nc2ccc3c(c2)C(=O)c2ccccc2C3=O)cc1
IC50: 4 µM

CC(=O)O[C@H](C)[C@@H]1C2=C(C(=O)C[C@]1(C)O)C(=O)c1c(ccc(-c3ccc4c(c3O)C(=O)C3=C(C4=O)[C@@H]([C@@H](C)OC(C)=O)[C@@](C)(O)CC3=O)c1O)C2=O
IC50: > 100 µM (inactive)

O=C(CSc1nc2ccccc2s1)c1sc2sc3ccccc3[n+]2c1[O-]
IC50: 0.6 µM

O=C(O)c1c(Br)c(Br)c(Br)c(Br)c1C1c2ccc(O)cc2Oc2cc(O)ccc21
IC50: 8 µM

Cc1ccc(NC(=O)c2c(NC(=O)c3ccccc3F)sc3c2CCCCC3)cc1
IC50: 0.6 µM

O=C1O/C(=C(/C(=O)O)c2ccc(O)cc2)C(O)=C1c1cc2c3c(c(O)cc(C4=C(O)/C(=C(\C(=O)O)c5ccc(O)cc5)OC4=O)c3c1)OC2=O
IC50: inactive

Nc1c(S(=O)(=O)O)cc(Nc2cccc(S(N)(=O)=O)c2)c2c1C(=O)c1ccccc1C2=O
IC50: inactive

COc1ccc2c(c1)N(C(=O)CN1C(=O)c3ccccc3C1=O)C(C)(C)c1ssc(=S)c1-2
IC50: inactive

COc1ccc(N2C(=O)/C(=C\c3cn(CC(=O)Nc4ccccc4)c4ccccc34)C(=O)NC2=S)cc1
IC50: 2.2 µM

COc1ccc(N2C(=O)/C(=C/c3ccc(I)o3)C(=O)NC2=S)cc1
IC50: 3 µM

CC(=O)/C=C/C=C/c1ccc2c(c1)OC(CO)C(c1ccc(O)c(O)c1)O2 (configuration not stated)
IC50: inactive

O=C(O)/C=C/c1c2ccc(=O)c(O)c-2oc2c(O)c(O)ccc12
IC50: 2 µM

CCOC(=O)Oc1c(OC)cc(C(=O)O[C@@H]2C[C@@H]3CN4CCc5c([nH]c6cc(OC)ccc56)[C@H]4C[C@@H]3[C@H](C(=O)OC)[C@H]2OC)cc1OC
IC50: > 100 µM (inactive)

Cc1ccc(N2C(=O)/C(=C/c3ccc(O)c(O)c3)SC2=S)cc1C
IC50: 2 µM

O=C(Nc1sc2c(c1C(=O)Nc1cccc3ccccc13)CCCCC2)c1ccccc1F
IC50: 5 µM

Cc1cc(Cl)ccc1OCC(=O)Nc1sc(C)c(C)c1C(N)=O
IC50: 1.2 µM

Nc1ccc(N=Nc2ccc(-c3ccc(O)cc3)cc2)c2ccc(S(=O)(=O)O)cc12
IC50: inactive

COc1ccc(NC(=O)c2c(N)sc(-c3ccccc3)c2C)cc1
IC50: 2 µM

O=C1c2ccccc2C(=O)N1c1ccc(-c2nc3ccc(N4C(=O)c5ccccc5C4=O)cc3[nH]2)cc1
IC50: 5 µM

C[C@@H]1[C@H](O)c2c(c3c(c4c(-c5ccccc5)cc(=O)oc24)OC(C)(C)C=C3)O[C@@H]1C
IC50: 8 µM

O=S(=O)(O)c1cc(N=[N+]([O-])c2cc(S(=O)(=O)O)c3ccccc3c2)cc2ccccc12
IC50: 0.7 µM

O=C(Cc1ccccc1Cl)c1ccc(O)c(O)c1O
IC50: inactive

C[C@@H]1Oc2c3c(c4c(-c5ccccc5)cc(=O)oc4c2C(=O)[C@H]1C)OC(C)(C)C=C3
IC50: 4.2 µM

CC1=NN(c2ccc(S(N)(=O)=O)cc2)C(=O)/C1=C/c1ccc(-c2ccc(Cl)cc2Cl)o1
IC50: 9 µM

Cc1cc(-c2ccco2)c(C#N)c(SCC(=O)c2ccc(O)c(O)c2)n1
IC50: 1.1 µM

Cc1sc(NC(=O)C2CC3CCC2C3)c(C(N)=O)c1C (configuration not stated)
IC50: inactive

c1ccc(C(c2cccc3c2ccc2ccccc23)C(c2ccccc2)c2cccc3c2ccc2ccccc23)cc1 (configuration not stated)
IC50: 7.5 µM

COc1ccc(-c2nc3sc(-c4ccc(OC)cc4)nc3s2)cc1
IC50: > 100 µM (inactive)

C=C1C(=O)O[C@@H]2/C=C(\C)CC/C=C(\C(=O)O)CC/C=C(\C)CC[C@H]12
IC50: > 100 µM (inactive)

C=C/C(C)=C/C[C@]1(C)[C@H](C)CC[C@@]23C(=C[C@H](OC(=O)c4ccc(O)c(OC)c4)C[C@@H]12)[C@@H](OC(C)=O)O[C@H]3OC(C)=O
IC50: inactive

CC(C)=CCC/C(C)=C/Cc1cc(/C=C/c2cc(O)c(C/C=C(\C)CCC=C(C)C)c(O)c2)cc(O)c1O
IC50: 1.7 µM

CC(C)=CCc1ccc(O)c(=O)cc1C(C)C
IC50: 100 µM

Oc1cc(CN2COc3ccccc32)c(O)cc1CNC1CCCCC1
IC50: > 100 µM (inactive)

Cc1sc(NC(=O)c2cccc([N+](=O)[O-])c2)c(C(N)=O)c1C
IC50: 0.7 µM

Nc1ccc(S(=O)(=O)O)c2cccc(O)c12
IC50: inactive

O=C(O)CCc1c2ccc(=O)c(O)c-2oc2c(O)c(O)ccc12
IC50: 1.5 µM

COc1cccc2cc(C(N)=O)c(=O)oc12
IC50: > 100 µM (inactive)

CC(C)c1ccc(O)c(=O)cc1
IC50: > 100 µM (inactive)

CN(C)CN1CSC(=S)N(CN(C)C)C1
IC50: inactive

COC(=O)c1c(N)sc(C(=O)Nc2ccc(OC)cc2)c1C
IC50: inactive

COC(=O)c1cc2cc3cc4cc(CC(=O)O)c(C(=O)/C=C(\O)c5ccccc5O)c(OC)c4c(OC)c3c(O)c2c(=O)o1
IC50: inactive

CCc1c(O)c2c(c(O)c1C(C)=O)C(=O)c1c(cc(O)c(C(=O)O)c1C(=O)O)C2=O
IC50: > 100 µM (inactive)

C=C(CCC(C(=O)O)C1CCC2(C)C3=C(CCC12C)C1(C)CCC(O)C(C)(C)C1CC3)C(C)C (configuration not stated)
IC50: 9 µM

O=C1C(Cl)=C(NC(=O)c2ccccc2)C(=O)C(Cl)=C1NC(=O)c1ccccc1
IC50: > 100 µM (inactive)

Cc1ccc(C2COc3cc(O)c(O)cc3C2)cc1 (configuration not stated)
IC50: inactive

Cc1ccccc1-n1c(O)c(C=C2C=CC=N2)c(=O)[nH]c1=S
IC50: 8 µM

CN(C)CS/C(N)=N/C(O)C(Cl)(Cl)Cl (configuration not stated)
IC50: inactive

Cc1ccc(S(=O)(=O)N=C2C=C(Cl)C(=O)C(Br)=C2)cc1
IC50: inactive

COc1cc(C=O)ccc1OCCCOc1cccc(Oc2ccccc2)c1
IC50: 4.1 µM

CC1C2C=CC1C(c1c3ccc(=O)c(O)c-3oc3c(O)c(O)ccc13)C2C(=O)O (configuration not stated)
IC50: 1.3 µM

COc1ccc(C2COc3cc(O)c(O)cc3C2)cc1 (configuration not stated)
IC50: inactive

C=CC(C)(C)C12CC3C(=O)N/C(=C\c4cnc[nH]4)C(=O)N3C1Nc1ccccc12 (configuration not stated)
IC50: > 100 µM (inactive)

O=C1NC(=S)N(c2ccccc2F)C(=O)/C1=C/c1ccc(OCc2cccc(C(=O)O)c2)cc1
IC50: inactive

O=C1c2ccccc2C(=O)c2c1cc(O)c(O)c2O
IC50: inactive

S=C(Nc1ccc2c(c1)Cc1ccccc1-2)Nc1ccc2c(c1)Cc1ccccc1-2
IC50: 4 µM

Cc1ccc(C(=O)NC(=S)Nc2ccc(-c3nc4ccccc4s3)cc2)cc1[N+](=O)[O-]
IC50: 3.7 µM

CCCc1cc(=O)oc2c3c(c4c(c12)OC(C)(C)C=C4)O[C@@H](C)[C@H](C)[C@@H]3F
IC50: 7 µM

Cc1onc(-c2ccccc2)c1C(=O)Nc1sc(C)c(C)c1C(N)=O
IC50: inactive

COc1cc([C@@H]2c3cc4c(cc3C[C@H]3COC(=O)[C@@H]32)OCO4)cc(OC)c1O
IC50: 2.4 µM

O=C(O)C1CCCCC1c1c2ccc(=O)c(O)c-2oc2c(O)c(O)ccc12 (configuration not stated)
IC50: 2 µM

Cc1ccc(S(=O)(=O)/N=C2\C=CC(=O)C=C2Cl)cc1
IC50: inactive

Cc1sc(NC(=O)C2CCCO2)c(C(N)=O)c1C (configuration not stated)
IC50: > 100 µM (inactive)

Cc1cc(I)c2c(c1)C1C=CCC1C(C(=O)O)N2 (configuration not stated)
IC50: inactive

Cc1sc(NC(=O)c2ccc3c(c2)OCO3)c(C(N)=O)c1C
IC50: 4 µM

CCCCCCCCCCCCCCCCCCOCC(O)CO (configuration not stated)
IC50: > 100 µM (inactive)

Cc1cccc(NCC(=O)N/N=C\c2c(Br)cc(Br)c(O)c2Br)c1
IC50: inactive

COc1ccccc1NC(=O)c1c(NC(=O)Cc2ccccc2)sc2c1CCCCC2
IC50: 0.26 µM

COc1cc(C)cc2c(-c3c(O)cc(O)c4c3C[C@@H](C)N[C@@H]4C)cc(-c3cc(-c4c(O)cc(O)c5c4C[C@@H](C)N[C@@H]5C)c4cc(C)cc(OC)c4c3O)c(O)c12
IC50: 1.2 µM

O=C1NC(=S)N(c2cccc(Cl)c2)C(=O)/C1=C\C=C\c1ccco1
IC50: inactive

Cc1sc(NC(=O)c2ccc(Br)o2)c(C(N)=O)c1C
IC50: 4 µM

O=C1c2ccc(O)cc2C(=O)c2c1ccc(O)c2O
IC50: inactive

O=C1C(Cl)=C/C(=N\S(=O)(=O)c2ccccc2)C(Cl)=C1Cl
IC50: inactive

CC(C)=Cc1cc(CCC/C(C)=C/Cc2c(O)cc(C)c(C(=O)O)c2O)co1
IC50: inactive

COc1c(OC)c(O)c2c(=O)cc(-c3ccc(O)c(O)c3)oc2c1OC
IC50: inactive

COc1ccccc1N=C(NOCc1ccc(Cl)cc1Cl)c1nonc1N
IC50: inactive

O=C1/C(=C/c2ccc(O)c(O)c2)SC(=S)N1c1ccc(O)cc1
IC50: 8 µM

O=C(O)C1Nc2c(Cl)cc(Cl)cc2C2C=CCC12 (configuration not stated)
IC50: inactive

COc1ccc(C(=O)NC(=S)Nc2ccc3nn(-c4ccc(C)c(Cl)c4)nc3c2)cc1[N+](=O)[O-]
IC50: inactive
